Active and inactive are the calls of the source.
Assays:
[1] = target: T1, Peroxisomal acyl-coenzyme A oxidase 1 (Homo sapiens, UniProt Q15067)
T1 sequence (Q15067 whole entry): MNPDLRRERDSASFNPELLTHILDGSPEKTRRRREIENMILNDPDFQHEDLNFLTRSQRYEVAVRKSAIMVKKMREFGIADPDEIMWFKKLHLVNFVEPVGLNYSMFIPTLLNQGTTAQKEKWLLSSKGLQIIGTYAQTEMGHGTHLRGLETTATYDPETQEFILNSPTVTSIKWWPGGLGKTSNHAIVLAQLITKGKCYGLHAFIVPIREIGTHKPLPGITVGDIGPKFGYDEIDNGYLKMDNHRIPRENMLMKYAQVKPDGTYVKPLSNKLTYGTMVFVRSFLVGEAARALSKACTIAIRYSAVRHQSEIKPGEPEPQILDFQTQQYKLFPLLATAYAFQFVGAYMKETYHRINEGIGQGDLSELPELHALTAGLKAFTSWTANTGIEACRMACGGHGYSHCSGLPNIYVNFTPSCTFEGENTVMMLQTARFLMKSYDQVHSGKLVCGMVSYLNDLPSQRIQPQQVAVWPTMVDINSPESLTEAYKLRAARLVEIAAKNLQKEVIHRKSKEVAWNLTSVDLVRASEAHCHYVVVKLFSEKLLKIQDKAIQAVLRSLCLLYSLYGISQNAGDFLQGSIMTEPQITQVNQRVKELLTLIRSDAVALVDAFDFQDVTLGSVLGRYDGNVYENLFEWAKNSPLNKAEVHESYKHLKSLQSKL

[2] = target: T2, Glycogen phosphorylase, liver form (Homo sapiens, UniProt P06737); format: subcellular, K-562, COLO 205, SK-N-BE(2) and MV-4-11, Cell lysate; conditions: read-out: Kd apparent
T2 sequence (P06737 whole entry): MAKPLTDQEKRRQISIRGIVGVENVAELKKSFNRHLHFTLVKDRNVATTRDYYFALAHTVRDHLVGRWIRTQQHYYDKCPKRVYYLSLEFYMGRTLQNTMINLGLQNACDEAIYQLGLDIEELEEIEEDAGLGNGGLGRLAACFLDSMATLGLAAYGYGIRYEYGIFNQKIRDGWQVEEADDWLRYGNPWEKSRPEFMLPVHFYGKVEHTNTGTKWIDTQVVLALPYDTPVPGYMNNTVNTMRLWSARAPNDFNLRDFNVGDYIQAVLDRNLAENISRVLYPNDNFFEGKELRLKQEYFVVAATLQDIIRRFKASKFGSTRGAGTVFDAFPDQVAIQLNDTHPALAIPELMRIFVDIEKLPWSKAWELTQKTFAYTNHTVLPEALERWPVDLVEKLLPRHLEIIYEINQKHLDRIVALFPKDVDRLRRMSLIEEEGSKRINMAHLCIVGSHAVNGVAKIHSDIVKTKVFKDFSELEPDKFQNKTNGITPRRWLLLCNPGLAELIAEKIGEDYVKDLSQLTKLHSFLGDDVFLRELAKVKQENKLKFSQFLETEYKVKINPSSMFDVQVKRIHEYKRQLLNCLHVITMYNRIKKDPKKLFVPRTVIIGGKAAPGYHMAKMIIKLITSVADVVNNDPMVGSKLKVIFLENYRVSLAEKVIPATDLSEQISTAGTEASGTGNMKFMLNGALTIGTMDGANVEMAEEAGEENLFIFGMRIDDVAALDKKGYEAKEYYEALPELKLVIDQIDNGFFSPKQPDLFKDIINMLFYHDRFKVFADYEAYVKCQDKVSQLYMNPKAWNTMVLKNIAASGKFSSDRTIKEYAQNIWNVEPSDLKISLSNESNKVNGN

[3] = target: T3, Cyclin-G-associated kinase (Homo sapiens, UniProt O14976)
T3 sequence (O14976 whole entry): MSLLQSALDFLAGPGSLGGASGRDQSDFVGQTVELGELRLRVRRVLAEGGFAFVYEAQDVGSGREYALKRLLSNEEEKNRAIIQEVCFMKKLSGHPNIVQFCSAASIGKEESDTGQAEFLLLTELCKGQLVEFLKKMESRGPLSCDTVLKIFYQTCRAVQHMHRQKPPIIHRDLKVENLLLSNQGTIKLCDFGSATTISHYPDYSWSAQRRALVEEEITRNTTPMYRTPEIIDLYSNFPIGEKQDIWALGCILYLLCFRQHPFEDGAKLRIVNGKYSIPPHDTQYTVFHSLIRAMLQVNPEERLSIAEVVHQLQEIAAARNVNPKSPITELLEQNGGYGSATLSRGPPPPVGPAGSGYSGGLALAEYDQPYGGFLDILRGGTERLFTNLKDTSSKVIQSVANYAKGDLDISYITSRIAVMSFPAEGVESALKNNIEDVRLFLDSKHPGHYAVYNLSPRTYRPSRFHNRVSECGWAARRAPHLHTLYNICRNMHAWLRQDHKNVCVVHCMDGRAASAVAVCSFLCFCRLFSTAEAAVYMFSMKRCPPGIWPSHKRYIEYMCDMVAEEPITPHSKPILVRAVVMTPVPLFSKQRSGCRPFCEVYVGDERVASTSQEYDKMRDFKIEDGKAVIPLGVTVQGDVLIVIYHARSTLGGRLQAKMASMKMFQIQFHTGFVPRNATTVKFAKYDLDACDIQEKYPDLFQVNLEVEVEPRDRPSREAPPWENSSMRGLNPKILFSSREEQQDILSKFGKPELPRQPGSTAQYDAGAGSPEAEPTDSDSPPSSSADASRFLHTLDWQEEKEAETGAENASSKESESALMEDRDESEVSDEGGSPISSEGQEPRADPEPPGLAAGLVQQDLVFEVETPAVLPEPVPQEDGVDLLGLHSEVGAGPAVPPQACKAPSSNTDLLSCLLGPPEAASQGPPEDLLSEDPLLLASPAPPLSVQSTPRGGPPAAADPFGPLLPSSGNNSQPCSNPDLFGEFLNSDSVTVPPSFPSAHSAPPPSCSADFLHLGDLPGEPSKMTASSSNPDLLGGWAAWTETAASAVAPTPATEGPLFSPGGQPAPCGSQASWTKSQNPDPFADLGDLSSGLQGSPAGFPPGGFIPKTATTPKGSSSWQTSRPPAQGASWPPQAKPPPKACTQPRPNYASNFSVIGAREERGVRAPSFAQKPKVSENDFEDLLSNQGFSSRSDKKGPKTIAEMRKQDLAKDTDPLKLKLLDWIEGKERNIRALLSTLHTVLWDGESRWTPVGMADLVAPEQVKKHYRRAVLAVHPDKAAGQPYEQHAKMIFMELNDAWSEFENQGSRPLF

[4] = target: Serine/threonine-protein kinase B-raf (Homo sapiens, UniProt P15056)
Sequence of Serine/threonine-protein kinase B-raf (P15056 whole entry): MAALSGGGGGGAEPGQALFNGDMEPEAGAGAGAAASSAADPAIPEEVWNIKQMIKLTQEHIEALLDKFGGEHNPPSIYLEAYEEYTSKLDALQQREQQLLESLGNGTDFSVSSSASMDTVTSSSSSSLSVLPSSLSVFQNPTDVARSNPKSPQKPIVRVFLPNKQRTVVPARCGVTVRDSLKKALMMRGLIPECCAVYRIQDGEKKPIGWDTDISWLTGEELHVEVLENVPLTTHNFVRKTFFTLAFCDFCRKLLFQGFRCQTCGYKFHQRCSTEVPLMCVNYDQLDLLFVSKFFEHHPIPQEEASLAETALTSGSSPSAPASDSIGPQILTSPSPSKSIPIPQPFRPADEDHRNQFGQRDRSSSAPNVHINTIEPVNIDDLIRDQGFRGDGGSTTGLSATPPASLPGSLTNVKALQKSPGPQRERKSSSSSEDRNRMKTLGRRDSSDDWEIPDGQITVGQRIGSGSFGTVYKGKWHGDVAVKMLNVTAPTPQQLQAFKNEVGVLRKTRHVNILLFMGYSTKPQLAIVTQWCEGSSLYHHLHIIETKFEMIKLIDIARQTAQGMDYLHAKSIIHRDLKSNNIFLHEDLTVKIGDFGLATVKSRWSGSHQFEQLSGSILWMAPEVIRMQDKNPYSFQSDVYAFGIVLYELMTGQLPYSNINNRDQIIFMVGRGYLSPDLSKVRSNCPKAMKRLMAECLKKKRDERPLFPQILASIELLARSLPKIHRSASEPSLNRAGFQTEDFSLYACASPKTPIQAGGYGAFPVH
Further: in the data inactive means no Kd found up to 30 µM.

Compound	Kd [1]	Kd [2]	Kd [3]	Kd [4]
Cc1c(NC(=O)OC[C@@H]2COCCN2)cn2ncnc(Nc3ccc4c(cnn4Cc4cccc(F)c4)c3)c12 [AC-480]	> 30 µM (inactive)	> 30 µM (inactive)	> 30 µM (inactive)	> 30 µM (inactive)
COc1ccc(-c2ccc3ncc4c(c3c2)n(-c2ccc(N3CCNCC3)c(C(F)(F)F)c2)c(=O)n4C)cn1 [BGT-226 FREE BASE]	> 30 µM (inactive)	> 30 µM (inactive)	> 30 µM (inactive)	> 30 µM (inactive)
CCN(CCCOc1ccc2c(Nc3cc(CC(=O)Nc4cccc(F)c4)n[nH]3)ncnc2c1)CCOP(=O)(O)O [BARASERTIB]	> 30 µM (inactive)	> 30 µM (inactive)	> 30 µM (inactive)	> 30 µM (inactive)
Cc1cc(Nc2nc(N[C@@H](C)c3ncc(F)cn3)ncc2Cl)n[nH]1 [AZD-1480]	> 30 µM (inactive)	> 30 µM (inactive)	> 30 µM (inactive)	> 30 µM (inactive)
CCc1cc2c(cc1N1CCC(N3CCOCC3)CC1)C(C)(C)c1[nH]c3cc(C#N)ccc3c1C2=O [ALECTINIB]	0.271 µM	> 30 µM (inactive)	0.259 µM (active)	> 30 µM (inactive)
FC(F)(F)c1ccc(CNc2ccc(Cc3c[nH]c4ncc(Cl)cc34)cn2)cn1 [PEXIDARTINIB]	> 30 µM (inactive)	> 30 µM (inactive)	> 30 µM (inactive)	> 30 µM (inactive)
